Source: patent US6916843B1, “Anti-inflammatory actions of cytochrome P450 expoxygenase-derived eicosanoids” (The United States of America as represented by the …, priority 1999, dated 2005)

Assays:
[1] = test system: mononuclear cell adhesion to carotid artery; assay: TNF-α-induced mononuclear cell (U937) adhesion in the murine carotid artery; type: in vivo; details: mouse, intra-arterial infusion 100 ng/kg/min, TNF-α 10 μg/kg i.p., 5 hours
Experimental: FIG. 3A is a graph showing the expression of VCAM-1 in the murine carotid artery at 5 hours after treatment with intraperitaneal injection of TNF-α (10 μg/kg) alone or in combination with continuous intra-arterial infusion of [11,12]-EET (100 ng/kg/min). FIG. 3B is a bar graph showing the effect of [11,12]-EET on TNF-α induced mononuclear cell adhesion in the murine carotid artery. The mononuclear cells (U937) were perfused through the carotid artery at a wall shear stress of 3 dyn/cm^2. Intra-arterial infusion of vehicle (saline) or [14,15]-EET (100 ng/kg/min) had no effect. […] All experiments except the [14,15]-EET infusion were performed in duplicate.
To determine the functional relevance of EETs in vascular inflammation, we tested [11,12]-EET and its regioisomer [14,15]-EET in a recently developed in vivo model of TNF-α-induced VCAM-1 -mediated mononuclear cell adhesion in the murine carotid artery. […]
Cell rolling and adhesion were recorded on videotape using stroboscopic epifluoresence illumination with an introvital microscope (objective Zeiss 20×, 0.5 numerical aperture). […] In separate experiments, VCAM-1 expression was measured in paraffin-sections (5 μm thick) of carotid arteries harvested from mice treated in the same way. […]

[2] = test system: VCAM-1 expression; assay: Cell-surface enzyme immunoassay of cytokine-induced VCAM-1 expression in endothelial cells; type: cell-based, human; details: 100 nM, 24 hours
[3] = test system: E-selectin expression; assay: Cell-surface enzyme immunoassay of TNF-α-induced E-selectin expression in endothelial cells; type: cell-based, human; details: 100 nM, TNF-α 10 ng/ml
Experimental: FIG. 2 is a set of bar graphs of cell-surface enzyme immunoassays. […] The difference between treatment with TNF-α alone and in the presence of [11,12]-EET were statistically significant (*p<0.05, **p<0.01), OD, optical density. […] After stimulation with TNF-α (10 ng/ml) in the presence or absence of EET, promoter activity was determined relative to basal activity. *p<0.01 vs. TNF-α alone.
To determine the biological effects of EETs, we treated tumor necrosis factor alpha (TNF-α)-stimulated human endothelial cells with physiological relevant concentrations (1-100 nM) of [5,6]-EET, [8,9]-EET, [11,12]-EET, [14,15]-EET, [11,12]-DHET.

[4] = test system: superoxide anion; assay: Superoxide anion formation by BAECs (lucigenin chemiluminescence); type: cell-based, bovine; details: CYP2J2-transfected vs GFP-transfected cells
Experimental: The rate of superoxide anion generation by BAECs was determined as follows: Forty-eight hours after transfection with either pcDNA3.1/GFP or pcDNA3.1/CYP2J2, BAECs were detached by treatment with trypsin and resuspended in culture medium containing 10% FBS. Special care was taken to avoid unnecessary manipulation of the BAECs. The rate of superoxide anion formation in vitro was determined by chemiluminescence of lucigenin (bis-N-methylacridinium nitrate) as described by Yang et al., 274 Am. J. Physiol. H1955-H1961 (1998)). Briefly, culture medium (10% of FBS added) containing 0.25 mmol/L lucigenin (pH 7.4) was prepared as an assay solution. One milliliter of this assay solution was placed in a plastic scintillation vial., and then 2×10^6 BAECs were gently placed in the assay solution. The chemiluminescence of lucigenin was then detected with the use of a scintillation counter (LS 6500, Beckman Instruments, Fullerton, Calif.) in out-of-coincidence mode with a single active photomultiplier tube every 5 min. The chemical specificity of this light-yielding reaction for superoxide anion has been reported previously (Yang et al., 274 Am. J. Physiol. H1955-H1961 (1998)).

Row | Compound | mononuclear cell adhesion to the vessel wall [1] | inhibition of IL-1α-induced VCAM-1 expression ([2]; IL-1α) | inhibition of LPS-induced VCAM-1 expression ([2]; LPS 10 ng/ml) | inhibition of E-selectin expression [3] | rate of superoxide anion formation [4]
1 | CCCCC/C=C\C[C@H]1O[C@H]1C/C=C\C/C=C\CCCC(=O)O [[11,12]-EET] | inhibited | inhibited | inhibited | inhibited | 
2 | CYP2J2: CYP2J2 cDNA (1.9 kb) subcloned into plasmid pcDNA3.1, transfected into endothelial cells |  |  |  |  | significantly lower
